Data set [1] deals with cytotrophoblasts from the placenta. The note with it: FIG. 1 and WO 2005/110462; cited from earlier work.
The subject of the next data set is pregnant mice. Put plainly: COMT knockout mouse model of pre-eclampsia, administration of 2-ME to pregnant mice. The data set is classed as in vivo. The note with it: administration of 2-ME to mice, FIG. 12. The procedure:
FIG. 4 is a schematic of the experimental design for evaluating the role of COMT pre-eclampsia in mice.
FIG. 5 is a graph showing the number of dead embryos on Day 17 of pregnancy in mice with the indicated genotype (WT=wild type; Ko=mice with the COMT gene knocked out; +2me indicates the addition of 2-ME 2 ng/day).

With `COc1cc2c(cc1O)CC[C@@H]1[C@@H]2CC[C@]2(C)[C@@H](O)CC[C@@H]12` [2-ME, 2-methoxyestradiol], in data set [1], the “expression of HIF-1α” value is recorded as “decreases the expression of HIF-1α”; the “expression of VEGF, PlGF, VEGF Receptor 1 (VEGFR1) and sFlt-1” value was “dramatic decrease”. Further, in the data set on pregnant mice, the abnormal development result is “does not alter the litter size or cause abnormal development” and the litter size result is reported as “does not alter the litter size”.

(Values after patent US8592166B2, “Hypoxia related genes and proteins for the treatment and diagnosis of pregnancy related complications” (Beth Israel Deaconess Medical Center, Inc., priority 2006, dated 2013).)
